Counter-ions that a name gives are not always drawn. Like-named read-outs stand apart in the source and are kept apart here.
How the values were obtained:
[1] = tested on: alpha-adrenergic receivers of the dilatating pupil muscle; assay: effect on the function of the pupil (mydriatic effect, Polewka's method); assay type: in vivo; conditions: 5 mg/kg intravenously, mouse
Experimental: The phenomenon of mydriasis induced by ergot alkaloids results from the stimulation of alpha-adrenergic receivers of the dilatating pupil muscle (Z. Votava et al., Arch. int. Pharmacodin. 45, 1958, 114).
The mydriatic effect of dextrorotatory ergot alkaloids administered intravenously was determined with a monocular measuring magnifying glass by Polewka's method (A. R. Turner, Screening Methods in Pharmacology, 1965, p. 174 ff.).
The size of the pupil was measured at first before the administration of the substance and then 15, 30 and 60 minutes after intravenous administration of alkaloids into the mouse tail (dose 5 mg/kg of body weight).

[2] = tested on: smooth muscles of blood vessels; assay: effect on blood pressure drop in rats with cut spinal cord; assay type: in vivo, rats (variety Wistar); conditions: for duration of long-duration hypertension: acid addition salts, 1.5 mg/kg of body weight; for vasoconstrictory effect: contraction of smooth muscles of blood vessels
Text: Rats (variety Wistar) in urethane narcosis were cut their spinal cord in the region of the second cervical vertebra and connected to an artificial breathing apparatus (B. Melsungen). By this intervention the central regulation of blood pressure was eliminated. In so treated animals blood pressure dropped for about 50 mm Hg. The experiment was supposed to show whether the examined substances directly affected the smooth muscles of blood vessels.

[3] = tested on: isolated heart of a guinea pig; assay: effect on isolated heart of a guinea pig, modified Langendorff's method
Text: The effect of dextrorotatory ergot alkaloids according to the invention on heart in vitro was examined on isolated heart of a guinea pig by the modified Langendorff's method (Zalar et al., Poll. Chim. Farmac. 114, 1975, 146). Alkaloids were infused by an apparatus for slow infusion (B. Melsungen).

[4] = acute toxicity (LD50), intraperitoneal administration; conditions: mouse, in vivo, ip, male mice, 24 hours after administration
Experimental: The volume of injected solution was 0.01 ml/g of body weight. In the following Table I acute toxicity of dextrorotatory ergot alkaloids in comparison with levorotatory ergot alkaloids 24 hours after the intraperitoneal administration is given.

[5] = tested on: arrhythmias induced by adrenalin; assay: effect on arrhythmia induced by adrenalin; assay type: in vivo; conditions: 2.0 mg/kg intraperitoneally, guinea pigs, adrenalin 0.02 mg/kg intravenously
Experimental: For experiments, guinea pigs of both sexes, weighing from 400 to 550 g, were used. The narcotized animals (urethane 1.6 g/kg of body weight, intraperitoneally) were at first intravenously administered adrenalin (0.02 mg/kg) and then dextrorotatory ergot alkaloids. 1 hour and 1.5 hours after the administration of dextrorotatory ergot alkaloids, adrenalin was again administered intravenously (0.02 mg/kg) and the presence as well as duration of arrhythmias was ascertained.

[6] = tested on: spontaneously hypertensive rats; assay: effect on arterial pressure of spontaneously hypertensive rats; assay type: in vivo, rats (variety Okamoto Aoki F32)
Experimental: For the experiment groups of 10 spontaneously hypertensive rats (variety Okamoto Aoki F32) of both sexes, weighing from 200 to 250 g, were used. The acid addition salts of said dextrorotatory ergot alkaloids were administered intraperitoneally in doses of 50 mcg/kg of body weight and systolic blood pressure was measured on the rats' tails by means of plethysmographic method (K. Okamoto and K. Aoki, Jap. Circulat. J. 27, 1963, 282).

[7] = control, spontaneously hypertensive rats
[8] = day 2, 50 mcg/kg intraperitoneally
[9] = day 4, 50 mcg/kg intraperitoneally
[10] = day 6, 50 mcg/kg intraperitoneally
[11] = day 8, 50 mcg/kg intraperitoneally
[12] = day 10, 50 mcg/kg intraperitoneally

| SMILES | LD50 at 24 h [4] [mg/kg] | Shortening of arrhythmia duration [5] | The increase of pupil widening in comparison with the control ([1]; after 15 min.) [%] | The increase of pupil widening in comparison with the control ([1]; after 30 min.) [%] | The increase of pupil widening in comparison with the control ([1]; after 60 min.) [%] | Systolic blood pressure [6, 7] [mm Hg] | Systolic blood pressure [6, 8] [mm Hg] | Systolic blood pressure [6, 9] [mm Hg] | Systolic blood pressure [6, 10] [mm Hg] | Systolic blood pressure [6, 11] [mm Hg] | Systolic blood pressure [6, 12] [mm Hg] | also measured |
| --- | --- | --- | --- | --- | --- | --- | --- | --- | --- | --- | --- | --- |
| CC(C)C[C@H]1C(=O)N2CCC[C@H]2[C@]2(O)O[C@](NC(=O)[C@H]3C=C4c5cccc6[nH]cc(c56)C[C@H]4N(C)C3)(C(C)C)C(=O)N12 [ergocryptinine] | – | – | – | – | – | – | – | – | – | – | – | mydriatic effect (in words) [1]: strongest mydriatic effect; duration of long-duration hypertension [2]: more than 60 minutes; vasoconstrictory effect [2]: vasoconstrictory effect; effect on isolated heart (in words) ([3]; isolated heart of guinea pig): qualitatively similar to that of ergotamine, ergosine and dihydroergotamine; effect on the strength of heart contraction (in words) ([3]; isolated heart of guinea pig): quantitatively greater effect on the strength of heart contraction |
| CC(C)[C@H]1C(=O)N2CCC[C@H]2[C@]2(O)O[C@](NC(=O)[C@H]3C=C4c5cccc6[nH]cc(c56)C[C@H]4N(C)C3)(C(C)C)C(=O)N12 [ergocorninine] | – | – | – | – | – | – | – | – | – | – | – | duration of long-duration hypertension [2]: more than 60 minutes; vasoconstrictory effect [2]: vasoconstrictory effect |
| CC(C)[C@@]1(NC(=O)[C@@H]2C=C3c4cccc5[nH]cc(c45)C[C@H]3N(C)C2)O[C@@]2(O)[C@@H]3CCCN3C(=O)[C@H](Cc3ccccc3)N2C1=O [ergocristine methanesulfonate, reference compound] | 234 | – | – | – | – | – | – | – | – | – | – | – |
| CN1C[C@H](C(=O)N[C@]2(C)O[C@@]3(O)[C@@H]4CCCN4C(=O)[C@H](Cc4ccccc4)N3C2=O)C=C2c3cccc4[nH]cc(c34)C[C@H]21 [ergotamine tartrate, reference compound] | 412 | 63 % of control | 73.3 | 22.8 | 4.6 | 179 | 174 | 170 | 172 | 173 | 172 | activation at 0.65 µg/g ([3]; Cavia porcellus, read-out: (+)inotropic (maximum)): 75%; inhibition at 0.65 µg/g ([3]; Cavia porcellus, read-out: (-)chronotropic (maximum)): 30% |
| CC(C)C[C@H]1C(=O)N2CCC[C@H]2[C@]2(O)O[C@](NC(=O)[C@@H]3C=C4c5cccc6[nH]cc(c56)C[C@H]4N(C)C3)(C(C)C)C(=O)N12 [ergocryptine methanesulfonate, reference compound] | 188 | – | – | – | – | – | – | – | – | – | – | – |
| CN1C[C@@H](C(=O)N[C@]2(C)O[C@@]3(O)[C@@H]4CCCN4C(=O)[C@H](Cc4ccccc4)N3C2=O)C=C2c3cccc4[nH]cc(c34)C[C@H]21 [ergotaminine methanesulfonate, Ergotaminine methanesulfonate] | > 300 | 28 % of control | 66.3 | 69.8 | 30.3 | 189 | 162 | 143 | 131 | 144 | 150 | activation at 5.59 µg/g ([3]; Cavia porcellus, dose 5.59 mcg/g of heart, read-out: (+)inotropic (maximum)): 32%; inhibition at 5.59 µg/g ([3]; Cavia porcellus, dose 5.59 mcg/g of heart, read-out: (-)chronotropic (maximum)): 20% |
| CC(C)[C@@]1(NC(=O)[C@H]2C=C3c4cccc5[nH]cc(c45)C[C@H]3N(C)C2)O[C@@]2(O)[C@@H]3CCCN3C(=O)[C@H](Cc3ccccc3)N2C1=O [ergocristinine methanesulfonate, Ergocristinine methanesulfonate] | > 600 | 32 % of control | 48.7 | 10.3 | 2.5 | 187 | 183 | 177 | 169 | 160 | 152 | activation at 4.98 µg/g ([3]; Cavia porcellus, dose 4.98 mcg/g of heart, read-out: (+)inotropic (maximum)): 9%; inhibition at 4.98 µg/g ([3]; Cavia porcellus, dose 4.98 mcg/g of heart, read-out: (-)chronotropic (maximum)): 12% |
| CC(C)C[C@H]1C(=O)N2CCC[C@H]2[C@]2(O)O[C@@](C)(NC(=O)[C@H]3C=C4c5cccc6[nH]cc(c56)C[C@H]4N(C)C3)C(=O)N12 [ergosinine methanesulfonate, Ergosinine methanesulfonate] | 245 | 79 % of control | 135.0 | 122.5 | 32.5 | 180 | 169 | 152 | 140 | 141 | 138 | activation at 0.65 µg/g ([3]; Cavia porcellus, dose 0.65 mcg/g of heart, read-out: (+)inotropic (maximum)): 103%; inhibition at 0.65 µg/g ([3]; Cavia porcellus, dose 0.65 mcg/g of heart, read-out: (-)chronotropic (maximum)): 23% |
| CC(C)C[C@H]1C(=O)N2CCC[C@H]2[C@]2(O)O[C@@](C)(NC(=O)[C@@H]3C=C4c5cccc6[nH]cc(c56)C[C@H]4N(C)C3)C(=O)N12 [ergosine methanesulfonate, reference compound] | 206 | 84 % of control | 115.6 | 110.5 | 39.7 | 188 | 183 | 178 | 176 | 175 | 177 | activation at 0.57 µg/g ([3]; Cavia porcellus, dose 0.57 mcg/g of heart, read-out: (+)inotropic (maximum)): 49%; inhibition at 0.57 µg/g ([3]; Cavia porcellus, dose 0.57 mcg/g of heart, read-out: (-)chronotropic (maximum)): 17% |
| CC(C)[C@H]1C(=O)N2CCC[C@H]2[C@]2(O)O[C@](NC(=O)[C@H]3C=C4c5cccc6[nH]cc(c56)C[C@H]4N(C)C3)(C(C)C)C(=O)N12 [ergocorninine methanesulfonate, Ergocorninine methanesulfonate] | > 520 | 46 % of control | 52.7 | 36.1 | 19.4 | 190 | 182 | 176 | 166 | 160 | 161 | inhibition at 4.9 µg/g ([3]; Cavia porcellus, dose 4.90 mcg/g of heart, read-out: (-)chronotropic (maximum)): 11% |
| CC(C)C[C@H]1C(=O)N2CCC[C@H]2[C@]2(O)O[C@](NC(=O)[C@H]3C=C4c5cccc6[nH]cc(c56)C[C@H]4N(C)C3)(C(C)C)C(=O)N12 [ergocryptinine methanesulfonate, Ergocryptinine methanesulfonate] | > 520 | 63 % of control | 117.4 | 91.6 | 32.2 | 189 | 181 | 176 | 168 | 161 | 160 | activation at 0.04 µg/g ([3]; Cavia porcellus, dose 0.04 mcg/g of heart, read-out: (+)inotropic (maximum)): 111%; inhibition at 0.04 µg/g ([3]; Cavia porcellus, dose 0.04 mcg/g of heart, read-out: (-)chronotropic (maximum)): 21% |
